Test results from US5591741A, “Fungicidal spiroheterocyclic derivatives” (American Cyanamid Company, priority 1993, dated 1997).

Experiments:
[1] = tested on: Alternaria solani; assay: Activity against tomato early blight (AS); format: in vivo; details: Table VI; tomato seedlings, contact prophylactic foliar spray, 4 days
Method in brief: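 Foliar contact prophylactic spray on tomato seedlings (cv Outdoor Girl, second true leaf expanded) in acetone/water 50:50 with 0.04% Tween 20; 24 h at 20° C, 40% R.H., then inoculation with 10^4 spores/ml A. solani conidia. Kept moist at 21° C; lesion cover rated 4 days post-inoculation against untreated or diluent-sprayed controls.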

[2] = tested on: Phytophthora infestans; format: in vivo; details: tomato, direct protectant foliar spray
[3] = tested on: Leptosphaeria nodorum; assay: Activity against wheat leafspot (LN); format: in vivo; details: direct therapeutic foliar spray, 600 ppm, 6-8 days
Method in brief: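 Wheat cv Norman at single-leaf stage spray-inoculated with 1.5×10^6 conidia/ml, held 24 h at high humidity, then sprayed therapeutically with test compound at 600 ppm. Kept 6-8 days at 22° C, 70% humidity; lesion density per leaf rated against untreated or diluent-sprayed controls.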

[4] = tested on: Plasmopara viticola; assay: Antisporulant activity against vine downy mildew (PVA); format: in vivo; details: vine leaves, antisporulant foliar spray, 600 ppm, 750 l/ha
Method in brief: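 Cabernet Sauvignon vines (~8 cm) inoculated on lower leaf surfaces with 5×10^4 zoosporangia/ml, held 24 h at 21° C high humidity then 24 h glasshouse. Infected leaves sprayed underside with 600 ppm compound in 1:1 water/acetone, 0.04% Tween 20, 750 l/ha; 96 h glasshouse, 24 h humidity. Sporulating leaf area rated versus control.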

[5] = tested on: Erysiphe graminis f.sp. hordei; assay: Direct protectant activity against barley powdery mildew (EGP); format: in vivo; details: direct protectant foliar spray, 8 days
Method in brief: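 Barley seedlings (cv Golden Promise, single-leaf stage) were foliar-sprayed, held 24 h at 18 °C/40% RH, then dusted with mildew conidia. After 8 days at 18 °C/40% RH, sporulating leaf area was scored as a rating against untreated or diluent-sprayed controls.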

[6] = tested on: Erysiphe graminis f.sp. hordei; assay: Activity against barley powdery mildew, direct therapeutic (EGT); format: in vivo; details: direct therapeutic foliar spray, 600 ppm, up to 7 days
Method in brief: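 Barley seedlings (cv. Golden Promise, single-leaf stage) were dusted with mildew conidia one day before a therapeutic foliar spray of 600 ppm compound. Plants were kept at 18 °C and 40% humidity for up to 7 days, and sporulating leaf area was rated against untreated or diluent-sprayed controls.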

[7] = tested on: Rhizoctonia solani; assay: Activity against Rhizoctonia in-vitro (RSI); format: cell-based; details: 10 ppm, 10 days, 20° C., mycelial growth
Method in brief: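 R. solani mycelial fragments (5×10^4/ml) in half-strength Potato Dextrose Broth with compound added from acetone to 10 ppm final. Mycelial growth assessed after 10 days at 20° C, rated against untreated or diluent control.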

[8] = tested on: Botrytis cinerea; assay: Direct protectant activity against broad bean grey mould (BCB); format: in vivo; details: direct protectant foliar spray, 600 ppm, 4 days
Method in brief: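 Broad bean plants (cv The Sutton, two leaf pairs) sprayed on upper leaf surfaces at 600 ppm, then inoculated 24 h later with 10^6 conidia/ml. Kept 4 days at 22 °C, high humidity; disease control rated from % leaf area with lesions against untreated or diluent controls.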

[9] = tested on: Pyricularia oryzae; format: in vivo; details: rice seedlings, direct therapeutic foliar spray, 600 ppm, 4-5 days
[10] = tested on: Venturia inaequalis; assay: Activity against apple scab in-vitro (VII); format: cell-based; details: 10 ppm, 10 days, 20° C., mycelial growth
Method in brief: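 Compound in acetone was tested at 10 ppm final in half-strength Potato Dextrose Broth inoculated with V. inaequalis mycelial fragments and spores at 5×10^4 propagules/ml. After 10 days at 20° C, mycelial growth was rated against untreated or diluent controls.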

[11] = tested on: Pseudocercosporella herpotrichoides; assay: Activity against wheat eyespot in-vitro (PHI); format: cell-based; details: 10 ppm, 10 days, 20° C., mycelial growth
Method in brief: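 P. herpotrichoides mycelial fragments (5×10^4/ml) grown in half-strength PDB with compound at 10 ppm final, added from acetone. Incubated 10 days at 20 °C; mycelial growth rated against untreated or diluent controls.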

Row | SMILES | disease control rating AS [1] | disease control rating PIP [2] | disease control rating LN [3] | disease control rating PVA [4] | disease control rating EGP [5] | disease control rating EGT [6] | disease control rating RSI [7] | disease control rating BCB [8] | disease control rating PO [9] | disease control rating VII [10] | disease control rating PHI [11]
1 | CCN(CC1CCCCC1)C1COC2(CCC(C(C)(C)C)CC2)C1 (stereo not drawn) [Compound 92] | 0 (less than 50% disease control) | 2 (greater than 80% disease control) | 0 (less than 50% disease control) | 0 (less than 50% disease control) | 2 (greater than 80% disease control) | 2 (greater than 80% disease control) | 1 (about 50-80% disease control) | 2 (greater than 80% disease control) | 0 (less than 50% disease control) | 0 (less than 50% disease control) | 0 (less than 50% disease control)
2 | CCCCCN(C1CCCCC1)C1COC2(CCC(C(C)(C)C)CC2)C1 (stereo not drawn) [Compound 77] | 0 (less than 50% disease control) | 0 (less than 50% disease control) | 0 (less than 50% disease control) | 0 (less than 50% disease control) | 2 (greater than 80% disease control) | 2 (greater than 80% disease control) | 0 (less than 50% disease control) | 0 (less than 50% disease control) | 0 (less than 50% disease control) | 0 (less than 50% disease control) | 0 (less than 50% disease control)
3 | CC(C)CN(CC(C)C)CC1COC2(CCC(C(C)(C)C)CC2)C1 (stereo not drawn) [Compound 186] | 0 (less than 50% disease control) | 0 (less than 50% disease control) | 0 (less than 50% disease control) | 0 (less than 50% disease control) | 2 (greater than 80% disease control) | 0 (less than 50% disease control) | 0 (less than 50% disease control) | 0 (less than 50% disease control) | 0 (less than 50% disease control) | 0 (less than 50% disease control) | 0 (less than 50% disease control)
4 | CC(C)(C)C1CCC2(CC1)CC(O)(CNC1CCCCC1)CO2 (single isomer, unassigned) [Compound 213, 8-t-Butyl-3-cyclohexylaminomethyl-3-hydroxy-1-oxaspiro-(4,5)decane] | 2 (greater than 80% disease control) | 2 (greater than 80% disease control) | 0 (less than 50% disease control) | 0 (less than 50% disease control) | 2 (greater than 80% disease control) | 2 (greater than 80% disease control) | 0 (less than 50% disease control) | 2 (greater than 80% disease control) | 1 (about 50-80% disease control) | 0 (less than 50% disease control) | 0 (less than 50% disease control)
5 | c1ccc(CNC2COC3(CCCCC3)C2)cc1 (stereo not drawn) [Compound 33] | 0 (less than 50% disease control) | 0 (less than 50% disease control) | 0 (less than 50% disease control) | 0 (less than 50% disease control) | 0 (less than 50% disease control) | 1 (about 50-80% disease control) | 0 (less than 50% disease control) | 0 (less than 50% disease control) | 0 (less than 50% disease control) | 0 (less than 50% disease control) | 0 (less than 50% disease control)
6 | CC(C)N(CCC1CCCCC1)C1COC2(CCC(C(C)(C)C)CC2)C1 (stereo not drawn) [Compound 122] | 0 (less than 50% disease control) | 0 (less than 50% disease control) | 0 (less than 50% disease control) | 0 (less than 50% disease control) | 2 (greater than 80% disease control) | 2 (greater than 80% disease control) | 0 (less than 50% disease control) | 0 (less than 50% disease control) | 2 (greater than 80% disease control) | 0 (less than 50% disease control) | 0 (less than 50% disease control)
7 | CCCCNC1COC2(CCC(C(C)(C)C)CC2)C1 (stereo not drawn) [Compound 64] | 0 (less than 50% disease control) | 2 (greater than 80% disease control) | 0 (less than 50% disease control) | 0 (less than 50% disease control) | 2 (greater than 80% disease control) | 2 (greater than 80% disease control) | 0 (less than 50% disease control) | 2 (greater than 80% disease control) | 0 (less than 50% disease control) | 0 (less than 50% disease control) | 0 (less than 50% disease control)
8 | CCCCCNC1COC2(CCC(C(C)(C)C)CC2)C1 (stereo not drawn) [Compound 8] | 0 (less than 50% disease control) | 0 (less than 50% disease control) | 0 (less than 50% disease control) | 0 (less than 50% disease control) | 2 (greater than 80% disease control) | 2 (greater than 80% disease control) | 0 (less than 50% disease control) | 1 (about 50-80% disease control) | 0 (less than 50% disease control) | 1 (about 50-80% disease control) | 1 (about 50-80% disease control)
9 | CCCCN(Cc1cccnc1)C1COC2(CCC(C(C)(C)C)CC2)C1 (stereo not drawn) [Compound 48] | 2 (greater than 80% disease control) | 0 (less than 50% disease control) | 0 (less than 50% disease control) | 0 (less than 50% disease control) | 2 (greater than 80% disease control) | 2 (greater than 80% disease control) | 0 (less than 50% disease control) | 0 (less than 50% disease control) | 0 (less than 50% disease control) | 1 (about 50-80% disease control) | 0 (less than 50% disease control)
